Assay results taken from paper PMC8312697, “Mechanistic Investigations Support Liver Safety of Ubrogepant” (Toxicological Sciences, 2020).
Like-named read-outs stand apart in the source and are kept apart here.

Columns and labels:
monkeys = assay: Conventional nonclinical toxicology study, NHP; details: 9M NHP
Procedure: Conventional animal toxicology studies in rats and monkeys were performed by Merck & Co, Inc (West Point, Pennsylvania).

Clinical study exposures = type: in vivo, human
MRP3 = molecular target: T1, MRP3 (Homo sapiens, UniProt O15438); assay: MRP3 vesicular transport inhibition assay; type: biochemical; details: for inhibition of MRP3-mediated probe substrate transport: vesicular transport inhibition assay
T1 construct: Solvo Biotechnology (Szeged, Hungary), contract laboratory that ran the assay
T1 sequence (O15438 whole entry): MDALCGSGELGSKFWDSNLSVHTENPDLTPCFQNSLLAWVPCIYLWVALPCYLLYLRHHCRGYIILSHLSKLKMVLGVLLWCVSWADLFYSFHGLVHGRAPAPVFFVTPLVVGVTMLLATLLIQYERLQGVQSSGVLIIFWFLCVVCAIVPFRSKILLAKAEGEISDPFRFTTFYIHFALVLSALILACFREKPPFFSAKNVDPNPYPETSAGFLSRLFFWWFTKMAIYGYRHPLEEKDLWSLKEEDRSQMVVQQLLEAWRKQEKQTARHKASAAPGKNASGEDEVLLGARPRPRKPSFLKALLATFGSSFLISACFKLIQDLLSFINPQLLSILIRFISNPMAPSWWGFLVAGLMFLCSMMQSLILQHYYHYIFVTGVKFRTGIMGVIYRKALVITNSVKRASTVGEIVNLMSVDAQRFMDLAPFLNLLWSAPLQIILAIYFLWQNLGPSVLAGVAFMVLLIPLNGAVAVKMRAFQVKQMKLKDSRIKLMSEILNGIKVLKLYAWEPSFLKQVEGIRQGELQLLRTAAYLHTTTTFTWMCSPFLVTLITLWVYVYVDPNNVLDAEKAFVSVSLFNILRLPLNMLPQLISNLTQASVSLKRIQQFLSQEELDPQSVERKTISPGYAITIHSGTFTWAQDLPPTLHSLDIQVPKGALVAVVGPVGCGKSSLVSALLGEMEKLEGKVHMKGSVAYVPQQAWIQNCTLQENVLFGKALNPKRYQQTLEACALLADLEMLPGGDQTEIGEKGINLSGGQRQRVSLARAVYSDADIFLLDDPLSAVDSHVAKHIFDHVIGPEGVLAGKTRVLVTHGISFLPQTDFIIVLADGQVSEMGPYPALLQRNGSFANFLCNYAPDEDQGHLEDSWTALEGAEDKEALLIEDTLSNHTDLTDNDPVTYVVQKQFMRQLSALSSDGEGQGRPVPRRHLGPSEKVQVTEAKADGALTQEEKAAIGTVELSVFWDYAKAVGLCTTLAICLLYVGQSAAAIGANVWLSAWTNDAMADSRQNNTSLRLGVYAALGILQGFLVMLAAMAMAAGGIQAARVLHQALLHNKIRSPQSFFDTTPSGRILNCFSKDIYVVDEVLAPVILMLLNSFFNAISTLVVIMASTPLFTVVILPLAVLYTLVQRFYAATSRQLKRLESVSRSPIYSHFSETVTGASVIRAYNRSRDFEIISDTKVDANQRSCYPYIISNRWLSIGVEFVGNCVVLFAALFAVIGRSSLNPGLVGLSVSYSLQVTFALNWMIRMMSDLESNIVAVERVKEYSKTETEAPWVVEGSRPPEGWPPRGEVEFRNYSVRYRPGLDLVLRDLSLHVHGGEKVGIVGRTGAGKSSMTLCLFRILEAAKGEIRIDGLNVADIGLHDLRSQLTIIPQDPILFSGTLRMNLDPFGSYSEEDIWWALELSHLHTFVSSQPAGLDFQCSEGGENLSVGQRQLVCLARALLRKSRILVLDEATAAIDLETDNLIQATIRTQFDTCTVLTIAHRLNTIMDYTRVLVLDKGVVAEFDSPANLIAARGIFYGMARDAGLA
Procedure: (§1) To assess the functional impact of ubrogepant on the human ABC efflux transporters BSEP, MRP3, and MRP4, in vitro vesicular transport inhibition assays were conducted by Solvo Biotechnology (Szeged, Hungary). The ability of ubrogepant to inhibit the BSEP-mediated transport (and accumulation) of a probe substrate was tested at concentrations ranging from 0.04 – 30 μM, where the latter defined the upper limit of compound solubility in the BSEP assay buffer. For the MRP3 and MRP4 vesicle-based transporter assessments, ubrogepant concentrations of 0.1 to 70 μM were used. To assess the functional impact of ubrogepant on the human SLC (uptake) transporter NTCP, in vitro experiments were performed using HEK293 cells stably expressing NTCP. The ability of ubrogepant to inhibit NTCP-mediated uptake (and accumulation) of taurocholate was tested at concentrations ranging from 0.04 – 30 μM.
(§2) To assess the functional impact of MK-3207 on the human ABC efflux transporters BSEP, MRP3 and MRP4, in vitro vesicular transport inhibition assays were conducted by Solvo Biotechnology (Szeged, Hungary) and overseen by DSSI. BSEP transport was assessed in the presence of 0.5-30 µM MK-3207; MRP3 and MRP4 transport was assessed in the presence of 0.11-80 µM MK-3207. The upper limits of these ranges were determined by compound solubility in each assay buffer. NTCP transporter inhibition was assessed in NTCP-expressing HEK293 cells in the presence of 0.03 – 25 µM MK-3207.
(§3) IC50 values for MK-3207 were calculated for each of the transporters; these values were used as inputs into DILIsym. It was assumed that inhibition type for MK-3207 for MRP3 and MRP4 was mixed with α= 5; this is a typical value for bile acid transporter inhibitors in the experience of the DSS team.

MRP4 = molecular target: T2, MRP4 (Homo sapiens, UniProt O15439); assay: MRP4 vesicular transport inhibition assay; type: biochemical; details: for inhibition of MRP4-mediated probe substrate transport: vesicular transport inhibition assay
T2 construct: Solvo Biotechnology (Szeged, Hungary), contract laboratory that ran the assay
T2 sequence (O15439 1-1325): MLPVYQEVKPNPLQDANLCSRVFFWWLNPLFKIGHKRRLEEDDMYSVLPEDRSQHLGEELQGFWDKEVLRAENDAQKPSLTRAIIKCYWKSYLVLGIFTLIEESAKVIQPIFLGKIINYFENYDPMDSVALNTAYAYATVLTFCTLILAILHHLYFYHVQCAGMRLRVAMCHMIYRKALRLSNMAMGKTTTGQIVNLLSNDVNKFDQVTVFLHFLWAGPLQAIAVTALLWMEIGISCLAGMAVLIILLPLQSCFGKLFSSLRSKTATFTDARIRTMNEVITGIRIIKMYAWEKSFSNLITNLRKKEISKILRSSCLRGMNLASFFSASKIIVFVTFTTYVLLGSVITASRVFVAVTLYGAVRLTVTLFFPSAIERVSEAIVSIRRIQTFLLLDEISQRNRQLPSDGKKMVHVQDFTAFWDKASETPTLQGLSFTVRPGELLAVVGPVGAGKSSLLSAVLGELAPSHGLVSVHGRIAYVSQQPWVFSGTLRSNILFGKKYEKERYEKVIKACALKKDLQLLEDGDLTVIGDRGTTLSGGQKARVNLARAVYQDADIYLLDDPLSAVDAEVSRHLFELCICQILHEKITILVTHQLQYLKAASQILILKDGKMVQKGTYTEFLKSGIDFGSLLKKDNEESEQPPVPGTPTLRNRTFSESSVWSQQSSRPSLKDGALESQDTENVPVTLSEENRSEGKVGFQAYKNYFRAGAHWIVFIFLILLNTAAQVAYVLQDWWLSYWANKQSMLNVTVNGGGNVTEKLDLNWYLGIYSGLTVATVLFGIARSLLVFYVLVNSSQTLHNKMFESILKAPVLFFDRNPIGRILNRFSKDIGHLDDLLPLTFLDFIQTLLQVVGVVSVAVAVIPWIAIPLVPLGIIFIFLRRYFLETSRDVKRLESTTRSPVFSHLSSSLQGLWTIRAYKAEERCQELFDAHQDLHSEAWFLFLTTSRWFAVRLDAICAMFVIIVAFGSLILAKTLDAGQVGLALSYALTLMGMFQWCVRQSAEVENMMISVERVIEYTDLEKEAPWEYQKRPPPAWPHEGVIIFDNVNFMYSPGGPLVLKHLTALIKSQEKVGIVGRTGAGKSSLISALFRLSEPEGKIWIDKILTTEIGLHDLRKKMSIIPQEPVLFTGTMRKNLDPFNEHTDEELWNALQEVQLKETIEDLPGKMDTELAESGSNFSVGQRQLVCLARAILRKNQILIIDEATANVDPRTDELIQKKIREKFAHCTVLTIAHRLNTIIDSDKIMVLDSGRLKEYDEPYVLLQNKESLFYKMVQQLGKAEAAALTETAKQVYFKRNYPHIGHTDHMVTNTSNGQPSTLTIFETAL
Procedure: as §1, §2, §3

[1] = test system: mitochondrial electron transport chain (ETC); assay: MITOsym/DILIsym fit of OCR data (ETC inhibition parameters); set-up: species or system human; details: for DILIsym ETC inhibition constant: MITOsym value × scaling factor of 34.7
Procedure: MITOsym® parameters were then translated to DILIsym® parameters using a scaling factor calculated using classic exemplar compounds that perturb different pathways of mitochondrial respiration (e.g., rotenone for ETC inhibition, FCCP for uncoupling).
The parameter values for ubrogepant were determined by reproducing the cell count-corrected OCR data in MITOsym®, a mechanistic model of mitochondrial function in the in vitro setting. MITOsym parameters were then translated to DILIsym parameters using a scaling factor calculated using classic exemplar compounds that perturb different pathways of mitochondrial respiration (e.g., rotenone for ETC inhibition, FCCP for uncoupling).
Mitochondrial toxicity parameter values for MK-3207 were determined by reproducing the cell count-corrected OCR response to MK-3207 dosing in both MITOsym and DILIsym. The ETC inhibition coefficient from the MITOsym parameters was then translated to a DILIsym parameter using a scaling factor calculated using classic exemplar compounds that perturb different pathways of mitochondrial respiration (e.g., rotenone for ETC inhibition, FCCP for uncoupling), similar to ubrogepant. The maximum inhibition potency from the DILIsym fit was combined with this value in the final parameter set.

[2] = test system: clinical trial participants; set-up: cases of ALT or AST ≥ 3× ULN: unit not given here; details: cited from earlier work
[3] = curve fitting assuming maximum inhibition at higher concentrations is 100%, read-out: MRP3 estimated lowest possible IC50
[4] = among the 5 patients with ALT > 3-fold ULN at > 500 mg daily, ref Hargreaves and Olesen, 2019, Hewitt et al., 2011

## C[C@@H]1[C@H](c2ccccc2)C[C@H](NC(=O)c2cnc3c(c2)C[C@@]2(C3)C(=O)Nc3ncccc32)C(=O)N1CC(F)(F)F [Ubrogepant]
monkeys
  Pivotal conventional nonclinical toxicology study liver findings: no liver safety signal
  exposure margin: 163 ×
Clinical study exposures; Phase 3, 100 mg QD
  clinical study exposure: c Phase 3 clinical study exposures based on 2 μM/h at dose of 100 mg QD.
MRP3; [3]
  IC50: ≥ 85.9 µM
MRP3; human, membrane vesicles with MRP3 (vesicular transport assay), 70 µM (solubility limit), read-out: maximum inhibition at the highest concentration tested, MRP3
  inhibition at 70 µM: < 50%
MRP3
  inhibition of MRP3-mediated probe substrate transport: inhibited
MRP4; human, membrane vesicles with MRP4 (vesicular transport assay), 70 µM (solubility limit), read-out: maximum inhibition at the highest concentration tested, MRP4
  inhibition at 70 µM: < 50%
MRP4
  inhibition of MRP4-mediated probe substrate transport: did not inhibit MRP4
[1]
  DILIsym ETC inhibition constant: 472 µM
[1]; fit of 24-hour HepG2 OCR data
  MITOsym ETC inhibition constant: 0.0136 mM
[2]; 100 mg QD 2 days on, 2 days placebo, alternating, 8 weeks, healthy adults, n = 256, ref Goadsby et al., 2019
  ALT/AST ≥ 3-fold ULN, number of participants: 2
[2]; 52-week long-term extension trial, 1230 people, ref Ailani et al., 2019
  cases of ALT or AST ≥ 3× ULN: 20

## O=C(CN1C(=O)C2(CCCC2)NC[C@H]1c1cc(F)cc(F)c1)Nc1ccc2c(c1)C[C@@]1(C2)C(=O)Nc2ncccc21 [MK-3207]
monkeys
  Pivotal conventional nonclinical toxicology study liver findings: no liver safety signal
  exposure margin: 4 ×
Clinical study exposures; Phase 2, 900 mg daily
  clinical study exposure (mean): b Phase 2 clinical study exposures based on mean of 60 μM/h at dose of 900 mg daily; original projected daily dose was 80 mg.
MRP3; used as basolateral transporter inhibition constant, read-out: MRP3 calculated IC50
  IC50: 49.9 µM
MRP3
  inhibition of MRP3-mediated probe substrate transport: inhibited
MRP4
  inhibition of MRP4-mediated probe substrate transport: No inhibition was observed
[1]; DILIsym fit of HepG2 OCR data
  maximal inhibition value (ETC): 0.35
[1]; MITOsym constant translated into DILIsym, 1-hour and 24-hour HepG2 OCR data
  ETC inhibition coefficient: 0.347 µM
[2]; [4]
  patients symptomatic with Hy’s law: 1
  patients with > 20-fold ALT rises: 3
[2]; daily doses > 500 mg, individuals dosed for more than 1 week, most responding given 600–900 mg per day, ref Hargreaves and Olesen, 2019, Hewitt et al., 2011
  Clinical ALT > 3× ULN: 42% (5/12) among individuals dosed for more than 1 week; most responding were given 600–900 mg per day
[2]; daily doses of < 100 mg, ref Hargreaves and Olesen, 2019, Hewitt et al., 2011
  ALT > 3-fold ULN after 2 weeks: 1%

## O=C(N[C@@H]1CC[C@@H](c2cccc(F)c2F)CN(CC(F)(F)F)C1=O)N1CCC(n2c(=O)[nH]c3ncccc32)CC1 [Telcagepant]
monkeys
  Pivotal conventional nonclinical toxicology study liver findings: no liver safety signal
  exposure margin: 7 ×
Clinical study exposures; Phase 3, 280 mg BID (2 h apart)
  clinical study exposure (mean): a Phase 3 clinical study exposures based on mean of 70 μM/h at dose of 280 mg BID (2 h apart).
MRP3; [3]
  IC50: ≥ 16.6 µM
MRP3; human, membrane vesicles with MRP3 (vesicular transport assay), read-out: maximum inhibition at the highest concentration tested, MRP3
  inhibition at 20 µM: < 50%
MRP3
  inhibition of MRP3-mediated probe substrate transport: inhibited
MRP4; curve fitting assuming maximum inhibition at higher concentrations is 100%, read-out: MRP4 estimated lowest possible IC50
  IC50: ≥ 16.9 µM
MRP4; human, membrane vesicles with MRP4 (vesicular transport assay), read-out: maximum inhibition at the highest concentration tested, MRP4
  inhibition at 20 µM: < 50%
MRP4
  inhibition of MRP4-mediated probe substrate transport: inhibited
[1]
  DILIsym ETC inhibition constant: 17400 µM
[1]; fit of 1 hour HepG2 OCR data
  MITOsym ETC inhibition constant: 0.5 mM
[2]; 140 mg BID 12 weeks, ref Ho et al., 2014
  Clinical ALT > 3× ULN: 1.9% (5/258) ([Ho et al., 2014])
[2]; 140 mg BID 12 weeks, ref Ho et al., 2014, listed as telcagepant
  Clinical ALT > 3× ULN: 1.9%
[2]; 280 mg BID 12 weeks, ref Ho et al., 2014
  Clinical ALT > 3× ULN: 3.2%
